What was measured:
Type in all cases: cell-based
[1] = test system: Q7 cells (ST HDH Q7/7; immortalized mouse striatal cells); experiment: Q7 RSL3 challenge cell survival (rescue) assay; conditions: 18 h, read-out: Q7 RSL3 Survival EC50
From the text: (§1) In neuronal cells excess extracellular glutamate inhibits the cystine/glutamate antiporter leading to intracellular cysteine depletion, GSH depletion, reactive oxygen species (ROS) production and cell death, a phenomenon termed oxidative glutamate toxicity, oxytosis, or ferroptosis. […] Q7 cells (ST HDH Q7/7; immortalized mouse striatal cells) challenged with cystine-free media or the selective, irreversible GPX4 inhibitor, methyl (1S,3R)-2-(2-chloroacetyl)-1-(4-(methoxycarbonyl)phenyl)-2,3,4,9-tetrahydro-1H-pyrido[3,4-b]indole-3-carboxylate (hereafter referred to as RSL3), recapitulate this phenotype, as do normal human fibroblasts (NHF) challenged with RSL3. An initial screen was performed to identify compounds effective in rescuing Q7 and/or NHF cells from death resulting from cystine deprivation or RSL3 challenge. This method is further described in Yonezawa et al., J. Neurochem 67, 566-573 (1996), Li et al., J Neurosci., 23, 5816-5826 (2003), Yang and Stockwell, Chem Biol., 15: 234-45 (2008), and Yang et al., Cell 156, 317-331 (2014). See also Hinman A, Holst C R, Latham J C, et al. Vitamin E hydroquinone is an endogenous regulator of ferroptosis via redox control of 15-lipoxygenase. PLoS One. 2018; 13(8):e0201369. Published 2018 Aug. 15. doi:10.1371/journal.pone.0201369; and Kahn-Kirby A H, Amagata A, Maeder C I, et al. Targeting ferroptosis: A novel therapeutic strategy for the treatment of mitochondrial disease-related epilepsy. PLoS One. 2019; 14(3):e0214250. Published 2019 Mar. 28. doi:10.1371/journal.pone.0214250.
(§2) DMEM (Catalog no. 11995-040), DMEM without Cystine (Catalog no. 21013-024), DMEM without Glucose (Catalog A1443001), PBS (Phosphate buffered saline), Penicillin-streptomycin mix, L-Glutamine, Glucose, Phenol Red, and Pyruvate were purchased from ThermoFisher Scientific (Gibco). Fetal Bovine Serum was obtained from Mediatech, Inc., or Sigma Aldrich. Mouse striatum derived ST HDH Q7/7 (Q7) and normal human skin fibroblast (NHF, product number GM21811) cells were obtained from the Coriell Institute. Methionine and Vitamin K2 were purchased from Sigma Aldrich. RSL3 was synthesized as previously described (see e.g. US Patent Publication US2010/0081654). Cell Titer Glo 2.0 was purchased from Promega. Q7 cell culture medium (Q7 growth medium) was made by combining 50 mL Fetal Bovine Serum, 100 U/mL penicillin, and 100 microgram/mL streptomycin; DMEM was added to make the volume up to 500 mL. Assay medium for the Cystine Deprivation assay was prepared by combining 50 mL Fetal Bovine Serum, 100 U/mL penicillin, 100 microgram/mL streptomycin, 4 mM L-Glutamine, 1 mM Pyruvate and 30 mg/L Methionine; DMEM without Cystine was added to make the volume up to 500 mL. NHF cell culture medium (NHF growth medium) was made by combining 50 mL Fetal Bovine Serum, 100 U/mL penicillin, 100 microgram/mL streptomycin, 2.8 mL 20% Glucose solution (final concentration 6 mM), L-glutamine (final concentration 2 mM), phenol red (final concentration 15 mg/L); DMEM without Glucose was added to make the volume up to 500 mL. Assay medium for the RSL3 challenge assay was identical to Growth medium. While not in use during the course of the experiments, these solutions were stored at 4° C. The cells were grown in 150-cm^2 tissue culture-treated flasks. Every third or fourth day, the cells were sub-cultured by trypsinization and re-seeded at a cell density of 600,000 (Q7) or 300,000 (NHF) cells per flask.
(§3) Q7 or NHF cells were cultured routinely as described herein. For 384-well cell survival assays, cells were seeded in clear bottom, black wall 384-well tissue culture-treated polystyrene plates by re-suspending a cell suspension at a density of 50,000 cells/mL in growth medium, then dispensing 60 microliters of cell suspension per well using either an electronic multichannel pipette or a Multidrop™ Combi Reagent Dispenser (ThermoFisher Scientific), corresponding to 3,000 cells/well. […]

[2] = test system: Q7 cells (ST HDH Q7/7; immortalized mouse striatal cells); experiment: Q7 Cystine Deprivation cell survival (rescue) assay; conditions: Q7 cells, cystine-free medium, 18 h, Cell Titer Glo, 50% relative viability vs Vitamin K2 (1 micromolar), read-out: Q7 Cystine Deprivation Survival EC50
From the text: as §1, §2, §3

[3] = test system: normal human fibroblasts (NHF, GM21811); experiment: NHF GM21811 RSL3 challenge cell survival (rescue) assay; conditions: Fibroblast, NHF cells, RSL3 2 micromolar, 48 h, Cell Titer Glo, read-out: NHF GM21811 RSL3 Survival EC50
From the text: as §1, §2, §3

[4] = Q7 cells, RSL3 2 micromolar, Cell Titer Glo

Row | Compound | EC50 [1, 4] [nM] | EC50 [3] [nM] | other results
1 | CC1=C(Cc2ccc(F)cn2)C(=O)c2cc(F)ccc2C1=O [Example 47, 6-fluoro-3-((5-fluoropyridin-2-yl)methyl)-2-methylnaphthalene-1,4-dione] | < 50 | – | EC50 [2]: < 50 nM
2 | CC1=C(Cc2ccc(C(F)(F)F)cn2)C(=O)c2c(F)cc(F)cc2C1=O [Example 50, 5,7-difluoro-2-methyl-3-((5-(trifluoromethyl)pyridin-2-yl)methyl)naphthalene-1,4-dione] | < 50 | – | EC50 [2]: < 50 nM
3 | CC1=C(Cc2ccc(C(F)(F)F)cn2)C(=O)c2cc(C)c(C)cc2C1=O [Example 43, 2,6,7-trimethyl-3-((5-(trifluoromethyl)pyridin-2-yl)methyl)naphthalene-1,4-dione] | 250 to 1000 | – | EC50 [2]: 50 to 250 nM
4 | CC1=C(Cc2ccc(C(F)(F)F)c(C#N)n2)C(=O)c2c(F)c(F)cc(F)c2C1=O [Example 130, 6-((5,7,8-trifluoro-3-methyl-1,4-dioxo-1,4-dihydronaphthalen-2-yl)methyl)-3-(trifluoromethyl)picolinonitrile] | > 1000 | – | –
5 | CC1=C(Cc2ccc(C(F)(F)F)cn2)C(=O)c2cc(F)cc(F)c2C1=O [Example 49, 5,7-difluoro-3-methyl-2-((5-(trifluoromethyl)pyridin-2-yl)methyl)naphthalene-1,4-dione] | < 50 | – | EC50 [2]: < 50 nM
6 | CC1=C(Cc2ccc(C(F)(F)F)cn2)C(=O)c2ccc(F)cc2C1=O [Example 44, 6-fluoro-3-methyl-2-((5-(trifluoromethyl)pyridin-2-yl)methyl)naphthalene-1,4-dione] | – | < 50 | EC50 [2]: < 50 nM
7 | CC1=C(Cc2ccc(C(F)(F)F)cn2)C(=O)c2cc(F)c(F)cc2C1=O [Example 78, 6,7-difluoro-2-methyl-3-((5-(trifluoromethyl)pyridin-2-yl)methyl)naphthalene-1,4-dione] | < 50 | – | –
8 | CC1=C(Cc2ccc(C(F)(F)F)cn2)C(=O)c2cc(C)ccc2C1=O [Example 42, 2,6-dimethyl-3-((5-(trifluoromethyl)pyridin-2-yl)methyl)naphthalene-1,4-dione] | – | < 50 | EC50 [2]: < 50 nM
9 | O=C1C(Cc2ccc(C(F)(F)F)cn2)=C(CC2COC2)C(=O)c2c(F)ccc(F)c21 [Example 90, 5,8-difluoro-2-(oxetan-3-ylmethyl)-3-((5-(trifluoromethyl)pyridin-2-yl)methyl)naphthalene-1,4-dione] | – | < 50 | –
10 | CCCC1=C(Cc2ccc(C(F)(F)F)c(C#N)n2)C(=O)c2c(F)ccc(F)c2C1=O [Example 85, 6-((5,8-difluoro-1,4-dioxo-3-propyl-1,4-dihydronaphthalen-2-yl)methyl)-3-(trifluoromethyl)picolinonitrile] | < 50 | – | –
11 | CCC1=C(Cc2ccc(C(F)(F)F)c(C)n2)C(=O)c2c(F)ccc(F)c2C1=O [Example 139, 2-ethyl-5,8-difluoro-3-((6-methyl-5-(trifluoromethyl)pyridin-2-yl)methyl)naphthalene-1,4-dione] | – | < 50 | –
12 | CCC1=C(Cc2ccc(C(F)(F)F)cn2)C(=O)c2cccc(F)c2C1=O [Example 61, 3-ethyl-5-fluoro-2-((5-(trifluoromethyl)pyridin-2-yl)methyl)naphthalene-1,4-dione] | – | < 50 | –
13 | CC1=C(Cc2ccc(C(F)(F)F)cn2)C(=O)c2cc(Cl)cc(Cl)c2C1=O [Example 58, 5,7-dichloro-3-methyl-2-[[5-(trifluoromethyl)-2-pyridyl]methyl]naphthalene-1,4-dione] | – | – | EC50 [1]: < 50 nM
14 | CCC1=C(Cc2ccc(C(F)(F)F)c(O)n2)C(=O)c2c(F)ccc(F)c2C1=O [Example 153, 2-ethyl-5,8-difluoro-3-((6-hydroxy-5-(trifluoromethyl)pyridin-2-yl)methyl)naphthalene-1,4-dione] | – | < 50 | –
15 | CCC1=C(Cc2cc(C(F)(F)F)c(OC)cn2)C(=O)c2c(F)ccc(F)c2C1=O [Example 134, 2-ethyl-5,8-difluoro-3-((5-methoxy-4-(trifluoromethyl)pyridin-2-yl)methyl)naphthalene-1,4-dione] | – | < 50 | –
16 | CC1=C(Cc2ccc(C(F)(F)F)cn2)C(=O)c2ccc(Cl)cc2C1=O [Example 59, 6-chloro-3-methyl-2-[[5-(trifluoromethyl)-2-pyridyl]methyl]naphthalene-1,4-dione] | < 50 | – | –
17 | [2H]C([2H])([2H])C1=C(Cc2ccc(C(F)(F)F)c(C(=O)O)n2)C(=O)c2c(F)ccc(F)c2C1=O [Example 127, 6-((5,8-difluoro-3-(methyl-d3)-1,4-dioxo-1,4-dihydronaphthalen-2-yl)methyl)-3-(trifluoromethyl)picolinic acid] | – | 50 to 250 | –
18 | CCC1=C(Cc2ccc(C(F)F)cn2)C(=O)c2c(F)ccc(F)c2C1=O [Example 136, 2-((5-(difluoromethyl)pyridin-2-yl)methyl)-3-ethyl-5,8-difluoronaphthalene-1,4-dione] | – | < 50 | –
19 | CCC1=C(Cc2ccc(C(F)(F)F)c(C#N)n2)C(=O)c2c(F)cc(F)cc2C1=O [Example 93, 6-((3-ethyl-6,8-difluoro-1,4-dioxo-1,4-dihydronaphthalen-2-yl)methyl)-3-(trifluoromethyl)picolinonitrile] | – | < 50 | –
20 | CC1=C(Cc2ccc(C(F)(F)F)cn2)C(=O)c2ccc(F)c(F)c2C1=O [Example 80, 5,6-difluoro-3-methyl-2-((5-(trifluoromethyl)pyridin-2-yl)methyl)naphthalene-1,4-dione] | < 50 | – | –
21 | [2H]C([2H])([2H])C1=C(C([2H])([2H])c2ccc(C(F)(F)F)cn2)C(=O)c2ccccc2C1=O [Example 22, 2-(methyl-d3)-3-((5-(trifluoromethyl)pyridin-2-yl)methyl-d2)naphthalene-1,4-dione] | < 50 | – | –
22 | CCC1=C(Cc2cccc(OC)n2)C(=O)c2c(F)ccc(F)c2C1=O [Example 89, 2-ethyl-5,8-difluoro-3-((6-methoxypyridin-2-yl)methyl)naphthalene-1,4-dione] | – | < 50 | –
23 | CCC1=C(Cc2ccc(F)c(C#N)n2)C(=O)c2c(F)ccc(F)c2C1=O [Example 132, 6-((3-ethyl-5,8-difluoro-1,4-dioxo-1,4-dihydronaphthalen-2-yl)methyl)-3-fluoropicolinonitrile] | – | < 50 | –
24 | CCC1=C(Cc2ccc(C)c(OC)n2)C(=O)c2c(F)ccc(F)c2C1=O [Example 97, 2-ethyl-5,8-difluoro-3-((6-methoxy-5-methylpyridin-2-yl)methyl)naphthalene-1,4-dione] | – | < 50 | –
25 | CCC1=C(Cc2cc(C)c(F)cn2)C(=O)c2ccccc2C1=O [Example 146, 2-ethyl-3-((5-fluoro-4-methylpyridin-2-yl)methyl)naphthalene-1,4-dione] | – | < 50 | –
26 | CCC1=C(Cc2ccc(F)c(C)n2)C(=O)c2c(F)ccc(F)c2C1=O [Example 140, 2-ethyl-5,8-difluoro-3-((5-fluoro-6-methylpyridin-2-yl)methyl)naphthalene-1,4-dione] | – | < 50 | –

Reference: patent publication US20230002324A1, “NAPHTHOQUINONE DERIVATIVES FOR TREATMENT OF OXIDATIVE STRESS DISORDERS” (PTC THERAPEUTICS, INC., priority 2019, published 2023)
